# What was measured:
# Format in all cases: cell-based
# Botrytis cinerea [1] = assay: Spore germination on agar-dextrose medium containing vinclozolin, microscopic examination (Example 1); conditions: 18 hours room temperature
# Protocol: Resistant and sensitive fungi were initially obtained from crops of cultivated fruit in the field. The percent germination reported below was calculated by microscopic evaluation. An average of four fields of view per plate was examined with each field of view having a total of about 100 to 300 spores. The total number of spores in each field of view was counted then either the number germinated or not germinated, whichever was easiest to count, was determined. These numbers were then combined appropriately and the percent germination calculated. Unless otherwise noted, resistant isolates are given a numerical designation and sensitive isolates a letter designation.
# Botrytis cinerea of known sensitivity and resistance to vinclozolin were cultured on potato dextrose agar prepared according to manufacturer's directions and Preparation Example 2 for 2 weeks and induced to sporulate under long wave ultraviolet light. Spores were transferred using a sterile cotton tipped swab to a solid medium containing 20 g of agar, 20 g dextrose and the amount of vinclozolin in parts per million per liter of media shown in Table 1 below. The innoculated media was incubated at room temperature for 18 hours and microscopically examined for germination; the results of this assay are set forth below in Table 1 where "BC" means Botrytis cinerea.
# Botrytis cinerea [2] = assay: Color change diameter on bromothymol blue diagnostic media at pH 7.5-8.5 (Example 3); design: key: T = only slight color change
# Protocol: (§1) Diagnostic media was prepared substantially as described above in Preparation Example 1 except that bromothymol blue rather than bromcresol purple and only 4 g of dextrose was used per liter and the pH adjusted to 7.5, 8.0 and 8.5. These media were then inoculated with spores of either Botrytis cinerea or Rhizopus nigricans isolates substantially as previously described. The inoculated media was then incubated for 18 hours at room temperature and the results recorded below in Table III.
# Rhizopus nigricans = assay: as above; design: key: T = only slight color change
# Protocol: as §1
smiles,measurement,setting,value
C=CC1(C)OC(=O)N(c2cc(Cl)cc(Cl)c2)C1=O (stereo not shown) [vinclozolin],Percent Germination,"Botrytis cinerea [1]; isolate BC-5 res., vinclozolin 10.0 ppm",90%
same,Percent Germination,"Botrytis cinerea [1]; isolate BC-6 res., vinclozolin 2.5 ppm",100%
same,Percent Germination,"Botrytis cinerea [1]; isolate BC-6 res., vinclozolin 5.0 ppm",100%
same,Percent Germination,"Botrytis cinerea [1]; isolate BC-6 res., vinclozolin 10.0 ppm",100%
same,Percent Germination,"Botrytis cinerea [1]; isolate BC-A sensitive, vinclozolin 2.5 ppm",0%
same,Percent Germination,"Botrytis cinerea [1]; isolate BC-A sensitive, vinclozolin 5.0 ppm",0%
same,Percent Germination,"Botrytis cinerea [1]; isolate BC-A sensitive, vinclozolin 10.0 ppm",0%
same,Percent Germination,"Botrytis cinerea [1]; isolate BC-B sens., vinclozolin 2.5 ppm",0%
same,Percent Germination,"Botrytis cinerea [1]; isolate BC-B sens., vinclozolin 5.0 ppm",0%
same,Percent Germination,"Botrytis cinerea [1]; isolate BC-B sens., vinclozolin 10.0 ppm",0%
same,Percent Germination,"Botrytis cinerea [1]; isolate BC-C sens., vinclozolin 2.5 ppm",0%
same,Percent Germination,"Botrytis cinerea [1]; isolate BC-C sens., vinclozolin 5.0 ppm",0%
same,Percent Germination,"Botrytis cinerea [1]; isolate BC-C sens., vinclozolin 10.0 ppm",0%
same,Percent Germination,"Botrytis cinerea [1]; isolate BC-D sens., vinclozolin 2.5 ppm",0%
same,Percent Germination,"Botrytis cinerea [1]; isolate BC-D sens., vinclozolin 5.0 ppm",0%
same,Percent Germination,"Botrytis cinerea [1]; isolate BC-D sens., vinclozolin 10.0 ppm",0%
same,DIAMETER OF COLOR CHANGE,"Botrytis cinerea [2]; isolate BC B sens., pH 7.5, 18 hours",0 mm
same,DIAMETER OF COLOR CHANGE,"Botrytis cinerea [2]; isolate BC B sens., pH 8.0, 18 hours",0 mm
same,DIAMETER OF COLOR CHANGE,"Botrytis cinerea [2]; isolate BC B sens., pH 8.5, 18 hours",0 mm
same,DIAMETER OF COLOR CHANGE,"Botrytis cinerea [2]; isolate BC-1 res., pH 7.5, 18 hours",12 mm
same,DIAMETER OF COLOR CHANGE,"Botrytis cinerea [2]; isolate BC-1 res., pH 8.0, 18 hours",6 mm
same,DIAMETER OF COLOR CHANGE,"Botrytis cinerea [2]; isolate BC-1 res., pH 8.5, 18 hours",0 mm
same,DIAMETER OF COLOR CHANGE,"Botrytis cinerea [2]; isolate BC-2 res., pH 7.5, 18 hours",12 mm
same,DIAMETER OF COLOR CHANGE,"Botrytis cinerea [2]; isolate BC-2 res., pH 8.0, 18 hours",6 mm
same,DIAMETER OF COLOR CHANGE,"Botrytis cinerea [2]; isolate BC-2 res., pH 8.5, 18 hours",T
same,DIAMETER OF COLOR CHANGE,"Botrytis cinerea [2]; isolate BC-3 res., pH 7.5, 18 hours",18 mm
same,DIAMETER OF COLOR CHANGE,"Botrytis cinerea [2]; isolate BC-3 res., pH 8.0, 18 hours",12 mm
same,DIAMETER OF COLOR CHANGE,"Botrytis cinerea [2]; isolate BC-3 res., pH 8.5, 18 hours",12 mm
same,DIAMETER OF COLOR CHANGE,"Botrytis cinerea [2]; isolate BC-4 res., pH 7.5, 18 hours",12 mm
same,DIAMETER OF COLOR CHANGE,"Botrytis cinerea [2]; isolate BC-4 res., pH 8.0, 18 hours",12 mm
same,DIAMETER OF COLOR CHANGE,"Botrytis cinerea [2]; isolate BC-4 res., pH 8.5, 18 hours",12 mm
same,DIAMETER OF COLOR CHANGE,"Botrytis cinerea [2]; isolate BC-5 res., pH 7.5, 18 hours",6 mm
same,DIAMETER OF COLOR CHANGE,"Botrytis cinerea [2]; isolate BC-5 res., pH 8.0, 18 hours",3 mm
same,DIAMETER OF COLOR CHANGE,"Botrytis cinerea [2]; isolate BC-5 res., pH 8.5, 18 hours",6 mm
same,DIAMETER OF COLOR CHANGE,"Botrytis cinerea [2]; isolate BC-6 resistant, pH 7.5, 18 hours",6 mm
same,DIAMETER OF COLOR CHANGE,"Botrytis cinerea [2]; isolate BC-6 resistant, pH 8.0, 18 hours",3 mm
same,DIAMETER OF COLOR CHANGE,"Botrytis cinerea [2]; isolate BC-6 resistant, pH 8.5, 18 hours",6 mm
same,DIAMETER OF COLOR CHANGE,"Botrytis cinerea [2]; isolate BC-A sensitive, pH 7.5, 18 hours",0 mm
same,DIAMETER OF COLOR CHANGE,"Botrytis cinerea [2]; isolate BC-A sensitive, pH 8.0, 18 hours",0 mm
same,DIAMETER OF COLOR CHANGE,"Botrytis cinerea [2]; isolate BC-A sensitive, pH 8.5, 18 hours",0 mm
same,DIAMETER OF COLOR CHANGE,"Botrytis cinerea [2]; isolate BC-C sens., pH 7.5, 18 hours",T
same,DIAMETER OF COLOR CHANGE,"Botrytis cinerea [2]; isolate BC-C sens., pH 8.0, 18 hours",0 mm
same,DIAMETER OF COLOR CHANGE,"Botrytis cinerea [2]; isolate BC-C sens., pH 8.5, 18 hours",0 mm
same,DIAMETER OF COLOR CHANGE,"Botrytis cinerea [2]; isolate BC-D sens., pH 7.5, 18 hours",T
same,DIAMETER OF COLOR CHANGE,"Botrytis cinerea [2]; isolate BC-D sens., pH 8.0, 18 hours",0 mm
same,DIAMETER OF COLOR CHANGE,"Botrytis cinerea [2]; isolate BC-D sens., pH 8.5, 18 hours",0 mm
same,DIAMETER OF COLOR CHANGE,"Rhizopus nigricans; isolate RP-3, pH 7.5, 18 hours",T
same,DIAMETER OF COLOR CHANGE,"Rhizopus nigricans; isolate RP-3, pH 8.0, 18 hours",T
same,DIAMETER OF COLOR CHANGE,"Rhizopus nigricans; isolate RP-3, pH 8.5, 18 hours",T
same,DIAMETER OF COLOR CHANGE,"Rhizopus nigricans; isolate RP-4, pH 7.5, 18 hours",T
same,DIAMETER OF COLOR CHANGE,"Rhizopus nigricans; isolate RP-4, pH 8.0, 18 hours",T
same,DIAMETER OF COLOR CHANGE,"Rhizopus nigricans; isolate RP-4, pH 8.5, 18 hours",T

# Reference: patent EP0373543A2, “Diagnostic media and assay for detecting fungicide resistance” (BASF Corporation, priority 1988, dated 1990)
